Data: patent publication US20230072683A1, “PYRIDO-PYRIMIDIN DERIVATIVES AND PHARMACEUTICAL COMPOSITION, FOR USE IN PREVENTING OR TREATING PI3 KINASE RELATED DISEASES, COMPRISING SAME AS ACTIVE INGREDIENT” (BORYUNG PHARMACEUTICAL CO., LTD, priority 2019, published 2023)

Columns and labels:
[1] = biological target: DNA-PK(h) (Homo sapiens, UniProt P78527); test: Evaluation of inhibitory activity against DNA-PK (HTRF kinase assay, GST-cMyc-p53 substrate); assay type: biochemical; details: for inhibition at 0.01 µM: compound concentration 0.01 μM, read-out: EXP_VALUE(% Inhibition) DNA-PK(h) 0.01 μM; for inhibition at 0.1 µM: compound concentration 0.1 μM, read-out: EXP_VALUE(% Inhibition) DNA-PK(h) 0.1 μM
Procedure: <Experimental Example 2> Evaluation of Inhibitory Activity Properties Against DNA-PK
The following experiments were performed to verify the inhibitory activity against DNA-PK with regard to each of the compounds of Examples 1 to 441 according to the present invention.
DNA-PK(h) was subjected to an isothermal treatment in an assay buffer comprising […] GST-cMyc-p53 and Mg/ATP (at a concentration as required). The reaction was initiated by the addition of a Mg/ATP mixture, and after incubation for 30 minutes at room temperature, a stop solution comprising EDTA was added to stop the reaction. A detection buffer comprising d2-labelled anti-GST monoclonal antibody and Europium-labelled anti-phospho Ser15 antibody for phosphorylated p53 was added. A plate was read in a time-resolved fluorescence mode and a homogeneous time-resolved fluorescence (HTRF) signal was determined according to HTRF=10000×(Em 665 nm/Em 620 nm).

[2] = biological target: PI3K-δ (PI3K(p1108/p857) (h)) (Homo sapiens, UniProt O00329); test: Evaluation of inhibitory activity against PI3K-δ (HTRF kinase assay); assay type: biochemical; details: for inhibition at 0.01 µM: compound concentration 0.01 μM, read-out: EXP_VALUE(% Inhibition) PI3K-δ 0.01 μM; for inhibition at 0.1 µM: compound concentration 0.1 μM, read-out: EXP_VALUE(% Inhibition) PI3K-δ 0.1 μM
Chain of PI3K-δ (PI3K(p1108/p857) (h)) (O00329 whole entry): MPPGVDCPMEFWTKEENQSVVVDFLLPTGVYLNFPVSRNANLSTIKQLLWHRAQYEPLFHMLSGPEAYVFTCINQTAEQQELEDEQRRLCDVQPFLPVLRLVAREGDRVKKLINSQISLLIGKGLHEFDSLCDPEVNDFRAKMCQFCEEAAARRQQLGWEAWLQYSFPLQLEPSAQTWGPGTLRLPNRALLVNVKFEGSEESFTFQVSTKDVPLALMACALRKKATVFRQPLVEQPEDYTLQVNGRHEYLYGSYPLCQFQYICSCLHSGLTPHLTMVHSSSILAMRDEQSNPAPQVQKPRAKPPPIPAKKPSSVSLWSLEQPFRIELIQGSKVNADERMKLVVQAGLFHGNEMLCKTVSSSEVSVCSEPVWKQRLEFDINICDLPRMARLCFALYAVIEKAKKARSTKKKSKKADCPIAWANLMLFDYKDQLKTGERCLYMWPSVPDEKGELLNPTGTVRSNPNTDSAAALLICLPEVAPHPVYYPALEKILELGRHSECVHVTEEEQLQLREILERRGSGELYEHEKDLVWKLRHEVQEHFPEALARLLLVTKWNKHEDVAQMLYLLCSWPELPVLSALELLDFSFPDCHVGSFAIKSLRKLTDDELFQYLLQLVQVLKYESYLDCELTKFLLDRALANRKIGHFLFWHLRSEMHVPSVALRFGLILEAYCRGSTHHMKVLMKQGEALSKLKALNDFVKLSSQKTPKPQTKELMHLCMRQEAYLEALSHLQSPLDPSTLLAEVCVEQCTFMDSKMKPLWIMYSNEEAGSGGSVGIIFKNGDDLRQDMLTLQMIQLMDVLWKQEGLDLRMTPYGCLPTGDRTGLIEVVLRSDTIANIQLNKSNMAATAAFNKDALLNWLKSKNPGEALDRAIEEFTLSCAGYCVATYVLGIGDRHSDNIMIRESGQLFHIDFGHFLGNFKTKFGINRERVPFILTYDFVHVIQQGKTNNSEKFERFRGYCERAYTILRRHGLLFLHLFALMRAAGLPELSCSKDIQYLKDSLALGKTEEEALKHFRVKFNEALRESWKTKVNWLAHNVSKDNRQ
Chain of PI3K-δ (PI3K(p1108/p857) (h)) (P27986 whole entry partner): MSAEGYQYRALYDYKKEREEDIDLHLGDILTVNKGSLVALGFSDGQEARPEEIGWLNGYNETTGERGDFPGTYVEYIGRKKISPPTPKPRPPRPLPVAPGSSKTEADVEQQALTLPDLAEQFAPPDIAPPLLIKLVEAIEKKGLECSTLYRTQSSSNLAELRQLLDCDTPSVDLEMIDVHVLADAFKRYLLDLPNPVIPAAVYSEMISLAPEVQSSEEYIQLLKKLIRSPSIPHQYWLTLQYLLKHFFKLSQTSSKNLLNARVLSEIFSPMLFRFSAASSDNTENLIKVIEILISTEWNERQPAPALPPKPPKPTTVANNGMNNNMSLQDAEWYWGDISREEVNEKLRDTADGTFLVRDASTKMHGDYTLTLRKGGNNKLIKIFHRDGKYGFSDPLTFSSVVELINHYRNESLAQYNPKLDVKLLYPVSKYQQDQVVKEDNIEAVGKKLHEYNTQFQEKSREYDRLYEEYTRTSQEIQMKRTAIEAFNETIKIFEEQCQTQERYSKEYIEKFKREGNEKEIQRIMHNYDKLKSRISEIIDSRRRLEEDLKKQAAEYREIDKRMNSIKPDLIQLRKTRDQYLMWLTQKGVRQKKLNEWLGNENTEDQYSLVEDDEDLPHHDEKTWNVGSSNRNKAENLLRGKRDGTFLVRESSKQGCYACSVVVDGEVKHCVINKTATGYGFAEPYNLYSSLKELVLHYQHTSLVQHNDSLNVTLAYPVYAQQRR
Procedure: <Experimental Example 1> Evaluation of Inhibitory Activity Properties Against PI3K-δ
The following experiments were performed to verify the inhibitory activity against PI3K-δ with regard to each of the compounds of Examples 1 to 441 according to the present invention.
PI3K(p1108/p857) (h) was incubated in assay buffer comprising 10 μM phosphatidylinositol-4,5-bisphosphate and Mg/ATP (at a concentration as required). The reaction was initiated by the addition of a Mg/ATP mixture, and after incubation for 30 minutes at room temperature, a stop solution comprising EDTA and phosphatidylinositol-3,4,5-triphosphate was added to stop the reaction and carry out biotinylation.
A detection buffer comprising Eu (europium)-labelled anti-GST monoclonal antibody, GST-tagged GRP1 PH domain and streptavidin-allophycocyanin was added. A plate was read in a time-resolved fluorescence mode and a homogeneous time-resolved fluorescence (HTRF) signal was determined according to HTRF=10000×(Em 665 nm/Em 620 nm).

SMILES | inhibition at 0.01 µM [1] | inhibition at 0.01 µM [2] | inhibition at 0.1 µM [1] | inhibition at 0.1 µM [2]
CON=C(C)c1cccc2c(Cl)c([C@H](C)Nc3ncnc4[nH]ccc(=O)c34)n(-c3ccccc3)c(=O)c12 (stereo in doubt) [Example 270, (S,Z)-4-((1-(4-chloro-8-(1-(methoxyimino)ethyl)-1-oxo-2-phenyl-1,2-dihydroisoquinolin-3-yl)ethyl)amino)pyrido[2,3-d]pyrimidin-5(8H)-one] | 60% | 63% | – | –
C[C@H](Nc1ncnc2[nH]ccc(=O)c12)c1c(Br)c2cccc(Cl)c2c(=O)n1-c1ccccc1 [Example 1, (S)-4-((1-(4-bromo-8-chloro-1-oxo-2-phenyl-1,2-dihydroisoquinolin-3-yl)ethyl)amino)pyrido[2,3-d]pyrimidin-5(8H)-one] | 52% | 105% | 91% | 104%
C[C@H](Nc1ncnc2[nH]ccc(=O)c12)c1c(Cl)c2cccc(B3OC(C)(C)C(C)(C)O3)c2c(=O)n1-c1ccccc1 [Example 2, (S)-4-((1-(4-chloro-1-oxo-2-phenyl-8-(4,4,5,5-tetramethyl-1,3,2-dioxaborolan-2-yl)-1,2-dihydroisoquinolin-3-yl)ethyl)amino)pyrido[2,3-d]pyrimidin-5(8H)-one] | 56% | 42% | 89% | 94%
C[C@H](Nc1ncnc2[nH]ccc(=O)c12)c1c(Cl)c2cccc(-c3ccc(-n4cccc4)nc3)c2c(=O)n1-c1ccccc1 [Example 3, (S)-4-((1-(8-(6-(1H-pyrrol-1-yl)pyridin-3-yl)-4-chloro-1-oxo-2-phenyl-1,2-dihydroisoquinolin-3-yl)ethyl)amino)pyrido[2,3-d]pyrimidin-5(8H)-one] | 44% | 69% | – | –
C[C@H](Nc1ncnc2[nH]ccc(=O)c12)c1c(Cl)c2cccc(-c3cccnc3)c2c(=O)n1-c1ccccc1 [Example 4, (S)-4-((1-(4-chloro-1-oxo-2-phenyl-8-(pyridin-3-yl)-1,2-dihydroisoquinolin-3-yl)ethyl)amino)pyrido[2,3-d]pyrimidin-5(8H)-one] | 53% | 101% | 99% | 109%
C[C@H](Nc1ncnc2[nH]ccc(=O)c12)c1c(Cl)c2cccc(-c3cnn(C)c3)c2c(=O)n1-c1ccccc1 [Example 5, (S)-4-((1-(4-chloro-8-(1-methyl-1H-pyrazol-4-yl)-1-oxo-2-phenyl-1,2-dihydroisoquinolin-3-yl)ethyl)amino)pyrido[2,3-d]pyrimidin-5(8H)-one] | 69% | 106% | 100% | 115%
C[C@H](Nc1ncnc2[nH]ccc(=O)c12)c1c(Cl)c2cccc(-c3cc4ccccc4o3)c2c(=O)n1-c1ccccc1 [Example 6, (S)-4-((1-(8-(benzofuran-2-yl)-4-chloro-1-oxo-2-phenyl-1,2-dihydroisoquinolin-3-yl)ethyl)amino)pyrido[2,3-d]pyrimidin-5(8H)-one] | 25% | 74% | 74% | 95%
C[C@H](Nc1ncnc2[nH]ccc(=O)c12)c1c(Cl)c2cccc(N3CCc4ccccc4C3)c2c(=O)n1-c1ccccc1 [Example 7, (S)-4′-chloro-3′-(1-((5-oxo-5,8-dihydropyrido[2,3-d]pyrimidin-4-yl)amino)ethyl)-2′-phenyl-3,4-dihydro-1H-(2,8′-biisoquinolin)-1′(2′H)-one] | 26% | 77% | 62% | 108%
C[C@H](Nc1ncnc2[nH]ccc(=O)c12)c1c(Cl)c2cccc(N3CC4CC=CCC4C3)c2c(=O)n1-c1ccccc1 (stereo partly drawn) [Example 8, 4-(((1S)-1-(4-chloro-1-oxo-2-phenyl-8-(3a, 4,7,7a-tetrahydro-1H-isoindol-2 (3H)-yl)-1,2-dihydroisoquinolin-3-yl)ethyl)amino)pyrido[2,3-d]pyrimidin-5(8H)-one] | 12% | 36% | 28% | 76%
C[C@H](Nc1ncnc2[nH]ccc(=O)c12)c1c(Cl)c2cccc(N3CCN(c4ccncc4)CC3)c2c(=O)n1-c1ccccc1 [Example 9, (S)-4-((1-(4-chloro-1-oxo-2-phenyl-8-(4-(pyridin-4-yl)piperazin-1-yl)-1,2-dihydroisoquinolin-3-yl)ethyl)amino)pyrido[2,3-d]pyrimidin-5(8H)-one] | 60% | 50% | 92% | 61%
C[C@H](Nc1ncnc2[nH]ccc(=O)c12)c1c(Cl)c2cccc(N3CCC(N4CCCCC4)CC3)c2c(=O)n1-c1ccccc1 [Example 10, (S)-4-((1-(8-([1,4′-bipiperidin]-1′-yl)-4-chloro-1-oxo-2-phenyl-1,2-dihydroisoquinolin-3-yl)ethyl)amino)pyrido[2,3-d]pyrimidin-5(8H)-one] | 15% | 40% | 73% | 70%
C[C@H](Nc1ncnc2[nH]ccc(=O)c12)c1c(Cl)c2cccc(N3CCN(C4CCN(C)CC4)CC3)c2c(=O)n1-c1ccccc1 [Example 11, (S)-4-((1-(4-chloro-8-(4-(1-methylpiperidin-4-yl)piperazin-1-yl)-1-oxo-2-phenyl-1,2-dihydroisoquinolin-3-yl)ethyl)amino)pyrido[2,3-d]pyrimidin-5(8H)-one] | 18% | 21% | 53% | 61%
C[C@H](Nc1ncnc2[nH]ccc(=O)c12)c1cc2cccc(-c3cccnc3)c2c(=O)n1-c1ccccc1 [Example 12, (S)-4-((1-(1-oxo-2-phenyl-8-(pyridin-3-yl)-1,2-dihydroisoquinolin-3-yl)ethyl)amino)pyrido[2,3-d]pyrimidin-5(8H)-one] | 6% | 102% | 21% | 114%
Cc1ccc(-c2cccc3cc([C@H](C)Nc4ncnc5[nH]ccc(=O)c45)n(-c4ccccc4)c(=O)c23)cn1 [Example 13, (S)-4-((1-(8-(6-methylpyridin-3-yl)-1-oxo-2-phenyl-1,2-dihydroisoquinolin-3-yl)ethyl)amino)pyrido[2,3-d]pyrimidin-5(8H)-one] | 3% | 35% | 18% | 101%
C[C@H](Nc1ncnc2[nH]ccc(=O)c12)c1cc2cccc(-c3ccc(F)cc3)c2c(=O)n1-c1ccccc1 [Example 14, (S)-4-((1-(8-(4-fluorophenyl)-1-oxo-2-phenyl-1,2-dihydroisoquinolin-3-yl)ethyl)amino)pyrido[2,3-d]pyrimidin-5(8H)-one] | 8% | 105% | 27% | 107%
C[C@H](Nc1ncnc2[nH]ccc(=O)c12)c1cc2cccc(-c3cnn(C)c3)c2c(=O)n1-c1ccccc1 [Example 15, (S)-4-((1-(8-(1-methyl-1H-pyrazol-4-yl)-1-oxo-2-phenyl-1,2-dihydroisoquinolin-3-yl)ethyl)amino)pyrido[2,3-d]pyrimidin-5(8H)-one] | 24% | 109% | 37% | 108%
C[C@H](Nc1ncnc2[nH]ccc(=O)c12)c1c(Br)c2cccc(-c3ccc(N(C)C)cc3)c2c(=O)n1-c1ccccc1 [Example 16, (S)-4-((1-(4-bromo-8-(4-(dimethylamino)phenyl)-1-oxo-2-phenyl-1,2-dihydroisoquinolin-3-yl)ethyl)amino)pyrido[2,3-d]pyrimidin-5(8H)-one] | 7% | 51% | 53% | 88%
C[C@H](Nc1ncnc2[nH]ccc(=O)c12)c1c(Cl)c2cccc(-c3ccc(C(F)(F)F)cc3)c2c(=O)n1-c1ccccc1 [Example 68, (S)-4-((1-(4-chloro-1-oxo-2-phenyl-8-(4-(trifluoromethyl)phenyl)-1,2-dihydroisoquinolin-3-yl)ethyl)amino)pyrido[2,3-d]pyrimidin-5(8H)-one] | 48% | – | 73% | –
